Laboratory results: ChEMBL document CHEMBL5303573, “Mapping human microbiome drug metabolism by gut bacteria and their genes” (Nature, 2019)

Target: T1, Lipolytic enzyme, G-D-S-L family (Bacteroides thetaiotaomicron, UniProt Q8A0C5)
T1 sequence (Q8A0C5 whole entry): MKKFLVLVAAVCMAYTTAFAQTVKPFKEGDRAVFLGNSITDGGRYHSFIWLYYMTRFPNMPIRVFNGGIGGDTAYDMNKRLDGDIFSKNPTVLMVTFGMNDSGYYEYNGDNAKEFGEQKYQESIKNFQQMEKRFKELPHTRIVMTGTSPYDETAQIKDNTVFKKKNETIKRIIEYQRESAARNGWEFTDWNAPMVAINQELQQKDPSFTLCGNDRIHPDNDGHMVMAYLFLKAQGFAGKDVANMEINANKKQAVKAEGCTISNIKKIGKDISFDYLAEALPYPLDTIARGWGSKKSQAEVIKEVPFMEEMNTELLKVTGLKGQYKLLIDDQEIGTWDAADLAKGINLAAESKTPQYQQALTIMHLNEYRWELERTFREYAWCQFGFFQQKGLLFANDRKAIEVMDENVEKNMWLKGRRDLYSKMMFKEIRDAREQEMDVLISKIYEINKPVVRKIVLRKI
Assay: The drug is tested on Bacteroides thetaiotaomicron strain: VPI-5482 for biotransformation. The drug concentrations were measured before and after a 12-h incubation by liquid-chromatography-coupled mass spectrometry (LC–MS)
Type: ADME
Parameters: dose 2 uM
Details: 2 µM

Bacterial Biotransformation: Compound NOT metabolized
Structure (SMILES): C[C@]12CCC(=O)C=C1[C@@H]1C[C@@H]1[C@H]1[C@@H]3[C@@H]4C[C@@H]4[C@@]4(CCC(=O)O4)[C@@]3(C)CC[C@@H]12 [DROSPIRENONE]
